The values that follow come from article PMC7828231, “Delphinidin Increases the Sensitivity of Ovarian Cancer Cell Lines to 3-bromopyruvate” (International Journal of Molecular Sciences, 2021).

One test has as its system PEO1 cells. Briefly: Cell migration (scraped area closure). The class given is cell-based, human. How it is done: Ovarian cancer cells and human normal fibroblasts were seeded on a 24-well plate at a density of 7 × 10^4/well (PEO1), 6.5 × 10^4/well (SKOV3) and 6 × 10^4/well (MRC-5) in 700 µL of appropriate cell medium and cultured at 37 °C to reach 90–95% confluence. Then, the cells in the middle of the wells were scraped off using sterile pipette tips (100 µL), cell debris was removed by washing with medium containing 2% FBS and the tested compounds diluted with medium containing 2% FBS were added. Images of the scraped area were collected after 12 h and 24 h at 10× objective magnification using an Olympus CKX53 microscope with a U-TV0. 5XC-3 digital microscope camera. The obtained results were analyzed using ImageJ software. The percentage of scraped area closure was estimated as the ratio of area measured after 12- or 24-h incubation and the area at the beginning of the experiment.

In a further test the test system is four OC cell lines. Further details: method as in PMID 26259240. To be noted: cited from earlier work.
The subject of the next test is DU145 cell line. Further details: method as in PMID 27462923. The following applies: DU145, up to 150 µM; cited from earlier work.
The next test has as its system NCI H460 cells. Further details: method as in PMID 15680311. The following applies: NCI H460, 50–200 µM; cited from earlier work.
In a further test the test system is NCI-H441 cells. More on the design: method as in PMID 24124611. To be noted: cited from earlier work.
For a further test, the system named is LnCaP cells. Further details: method as in PMID 27462923. The following applies: starting from a concentration of 50 µM; cited from earlier work.
The subject of the next test is HCT-116 cells. More on the design: method as in PMID 15680311. The following applies: HCT-116, 50–200 µM; cited from earlier work.
The next test relates to SF-268 cells. Further details: method as in PMID 15680311. The following applies: SF-268, 50–200 µM; cited from earlier work.
Another test relates to PC3 cell line. More on the design: method as in PMID 27462923. The following applies: PC3, up to 150 µM; cited from earlier work.
For the next test, the target named is glyoxalase I. More on the design: method as in PMID 20801663. To be noted: read-out: IC50 for glyoxalase I inhibition; cited from earlier work.
In the next test the test system is SKOV3 cells. Nature of the test: Apoptosis and necrosis assay (RealTime-Glo Annexin V). To be noted: after 24 h. Format: cell-based, human. On the procedure:
The levels of apoptosis and necrosis were assayed using the RealTime-Glo™ Annexin V Apoptosis and Necrosis Assay. Cells were seeded into a white 96-well plate with optical bottom, cultured and treated adequately, as stated above. After 24 h, 100 μL of the freshly prepared reagent was added to each well according to the manufacturer’s protocols. The fluorescence and luminescence were measured according to the protocols.

Another test deals with HCT116 cells. More on the design: method as in PMID 18729103. The following applies: cited from earlier work.
The subject of another test is A549 cells. Further details: method as in PMID 24124611. To be noted: cited from earlier work.
Another test concerns LoVo cells. Further details: method as in PMID 20494645. The following applies: LoVo parent cell line; cited from earlier work.
In another test the test system is 22Rν1 cells. More on the design: method as in PMID 18948740. To be noted: cited from earlier work.
The next test has as its system Caco-2 cells. Further details: method as in PMID 15016660. To be noted: Caco-2, 100–200 µM; cited from earlier work.
For a further test, the system named is SK-MES-1 cells. More on the design: method as in PMID 24124611. To be noted: cited from earlier work.
The subject of another test is MCF-7. Further details: method as in PMID 15680311. To be noted: MCF-7, 50–200 µM; cited from earlier work.

In general, IC50 refers to the concentration that inhibits the measured activity by half. For the compound `O=C(O)C(=O)CBr` [3-BP, 3-bromopyruvic acid], the cell migration result in the test with PEO1 cells is “significantly inhibited”. In the test on four OC cell lines, the IC50 was 16 to 84 µM.

Take `Oc1cc(O)c2cc(O)c(-c3cc(O)c(O)c(O)c3)[o+]c2c1` [Delphinidin chloride, 3,3′,4′,5,5′,7-hexahydroxyflavylium]: the viability entry is “did not affect the viability” with DU145 cell line; “did not affect significantly the viability” with NCI H460 cells; “concentration-dependently decreased the viability” in the test on LnCaP cells; “did not affect significantly the viability” in the test with HCT-116 cells; “did not affect significantly the viability” with SF-268 cells; “did not affect the viability” in the test with PC3 cell line. For the same compound, the viability entry in the test with Caco-2 cells was “decreased the viability”; in the test on MCF-7, “decreased, concentration-dependently, the viability”. In addition, the IC50 was 58 µM in the test with NCI-H441 cells; 1.9 µM on glyoxalase I; 110 µM in the test with HCT116 cells; 55 µM in the test with A549 cells; 38 µM with LoVo cells; 90 µM in the test on 22Rν1 cells. In addition, the IC50 with SK-MES-1 cells is 44 µM. The induction of apoptosis result in the test on SKOV3 cells was “induced apoptosis”.
